Source: PMC4623604, “Discovery of Small Molecules that Inhibit the Disordered Protein, p27^Kip1” (Scientific Reports, 2015)

Assays:
p27-D2-FL/Cdk2/cyclin A = molecular target: T1, p27-D2-FL/Cdk2/cyclin A (Homo sapiens, UniProt P46527, C99S/R93C); test: Fluorescence anisotropy displacement of p27-D2-FL from Cdk2/cyclin A; format: binding; conditions: 20 nM p27-D2-FL, 300 nM Cdk2/cyclin A, SJ403 0-3 mM; read-out: IC50, reduction of fluorescence anisotropy of p27-D2-FL (displacement from Cdk2/cyclin A)
T1 construct: p27-D2 (residues 58-105 of human p27); 6xHis (N, cleaved yes); made in house; host or cells: E. coli for p27-D2
T1 sequence (P46527 58-105 R93C/C99S): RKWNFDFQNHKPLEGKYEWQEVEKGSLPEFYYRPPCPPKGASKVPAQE
From the text: We used the Group 2 molecule, SJ403 (Suppl. Table 1b), to test our hypothesis that molecules that bind to p27 can alter its Cdk regulatory function. […] We first used fluorescence anisotropy (FA) to monitor displacement of a single-cysteine (Cys) mutant of p27-D2, with arginine 93 mutated to Cys (R93C) and labeled with Alexa Fluor 488 (p27-D2-FL), from Cdk2/cyclin A by SJ403.
The p27-D2-C99S-R93C mutant was conjugated with Alexa Fluor488-C5-Maleimide (Life Technologies, p27-D2-FL) in buffer containing 20 mM Na phosphate, pH7.3, 20 mM NaCl according to the manufacturer’s protocol. The conjugated protein was further purified by reverse-phase high performance liquid chromatography (HPLC) using a C4 column (Vydac) and 0.1% trifluoroacetic acid-containing water/acetonitrile solvent system. Lyophilized HPLC fractions were resuspended in buffer containing 20 mM Na phosphate, pH 7, 200 mM NaCl, 3.5 mM TCEP. Fluorescence anisotropy measurements were performed at 25 °C on a Horiba Fluorolog 3 spectrofluorometer. Briefly, p27-D2-FL (20 nM) was mixed with Cdk2/Cyclin A (300 nM) and added to the required amount of lyophilized compound (SJ403). All samples have been incubated overnight in the dark at 4 °C prior to fluorescence measurements. Fluorescence anisotropy binding data was analyzed using KaleidaGraph. […]

p27-D2/Cdk2/cyclin A = molecular target: T2, p27-D2/Cdk2/cyclin A (Homo sapiens, UniProt P46527); test: 2D 1H-15N TROSY-HSQC NMR displacement of p27-D2 from Cdk2/cyclin A; format: binding; conditions: 3 mM SJ403, 100 μM complex, 308 K
T2 construct: p27-D2 (residues 58-105 of human p27); 6xHis (N, cleaved yes); made in house; host or cells: E. coli for p27-D2
T2 sequence (P46527 58-105): as the sequence (P46527 58-105 R93C/C99S) above, with C36R, S42C counted along it
Procedure: We next used NMR spectroscopy to monitor the displacement of ^2H/^13C/^15N-labeled p27-D2 from Cdk2/cyclin A by SJ403; the complex of p27-D2 with Cdk2/cyclin A (100 μM) was prepared with a slight excess of ^2H/^13C/^15N-p27-D2 (mole ratio, 1.1:1.0 p27-D2:Cdk2/cyclin A). […] In this method, the relative population of the free state resonances (p^f; for the resonance of each p27-D2 residue) was determined as a fraction of the total intensity of both free and bound resonances for a given residue. These values were compared by forming the ratio of the two relative free state populations (p^fw/SJ403/p^fw/o SJ403); values greater than 1 indicated compound-dependent displacement. The relative populations for the bound state (p^b) were also determined for samples without (p^bw/o SJ403) and with SJ403 (p^bw/SJ403). […]
Figure 5 2D ^1H-^15N TROSY-HSQC NMR analysis of displacement of ^15N-p27-D2 from Cdk2/cyclin A by SJ403. 2D ^1H-^15N TROSY-HSQC NMR spectra of p27-D2/Cdk2/cyclin A in the absence (control) and presence of SJ403 (3 mM), respectively, were recorded. […]

CCn1c(C)c(C)n2c3c(=O)n(C)c(=O)n(C)c3nc12 [SJ403]
IC50 (p27-D2-FL/Cdk2/cyclin A): 475 ± 67 µM
displacement of p27-D2 from Cdk2/cyclin A by NMR (p27-D2/Cdk2/cyclin A): partial displacement
